In US8372848B2, “Melanin-concentrating hormone receptor antagonists and methods of use” (Mixture Sciences, Inc., priority 2004, dated 2013):
Entries after “also recorded” stand apart in the source; their conditions may differ.

Columns and labels:
rats [1] = test: Spontaneous activity (ambulatory and non-ambulatory movements) after icv administration, Example IV; assay type: in vivo, rat
Description: To determine the effect of TPI 1361-17 on spontaneous activity on rats, intraventricular cannulated rats were acclimatized to the testing situation. […] Ambulatory movements and non-ambulatory movements were monitored for 60 minutes upon administration of five nmol TPI 1361-17 or ACSF (FIGS. 4A, 4B).
For these experiments, ambulatory movements were recorded using a Hamilton-Kinder Activity Monitor (with the infrared beams in a 4×8 configured frame). Locomotion was quantified in transparent polycarbonate cages (32×26×20 cm) placed within the activity frames. Animal position was detected by two dimensional beam breaks. The ambulation was tabulated as a movement that results in the change of location. All other beam breaks are categorized as non-ambulatory, fine movement. Animals were acclimatized to the novel home cage-environment for 60 minutes before injection, then were removed, injected and immediately replaced in the same cage, and monitoring began. Locomotion was measured for 60 minutes after the ICV administration of either ACSF or 5 nmol TPI 1361-17.
For animal studies, adult male Sprague-Dawley rats weighing 200-300g were obtained from Charles River Laboratories (Wilmington, Mass.), bearing a 23-gauge stainless steel cannula placed into the right lateral ventricle. […]

rats [2] = test: MCH-induced food intake after icv administration; assay type: in vivo, rat
Description: To determine inhibitory effects of TPI 1361-17 on MCH-induced food intake, rats were habituated to a wire bottom cage for more than 3 weeks prior to the experiment. Experiments were carried out from 6 a.m. to 7 a.m. when rats were satiated. […] On the other hand, five nmol of TPI 1361-17 suppressed cumulative food intake by 75% even at 4h (FIG. 5B).
To determine the effects of TPI 1361-17 on MCH-induced food intake, rats were randomly divided into three groups: 1) TPI 1361-17 (dissolved in DMSO) and 2 nmol of MCH; 2) MCH 2 nmol, 3) ACSF. Each mixture contained a DMSO equivalent concentration to that of the antagonist solution (up to 5% (v/v)). Ten μl of each solution was administered into lateral ventricle for 2 minutes. The injections were done between 7:00-8:00 a.m., and food intake was monitored for 4 h after the injection.
For animal studies, adult male Sprague-Dawley rats weighing 200-300g were obtained from Charles River Laboratories (Wilmington, Mass.), bearing a 23-gauge stainless steel cannula placed into the right lateral ventricle. Rats were housed individually and maintained on a 12 h light-dark cycle (6:00 am-6:00 pm light) with free access to tap water and rat chaw (PROLAB RMH 2500, containing 23.0% protein, 4.5% fat, gross energy 4.5 kcal/g. PMI nutrition international, LLC. Brentwood, Mo.). Prior to all studies, rats were handled and habituated for 7 days, and 10 μl of artificial cerebrospinal fluid (ACSF: NaCl 124, KCl 5, CaCl2 2.4 MgSO4 2, KH2PO4 1.25, NaHCO3 26 and glucose 10, in mM) was injected through the cannula to minimize stress effects at the time of the experiment. Cannula placement was confirmed in all animals by evaluating the response to 50 ng of angiotensin II. Only animals drinking more than 5 ml of water in 1 h were used in feeding studies.

Question: Which results are given for `C[C@@H](CNCc1ccccc1)N1C[C@H](CCCNC(=N)N)N(CCc2cccc(F)c2)C1=S` [TPI 1361-17, N-(3-{(4S)-1-[(1S)-2-(benzylamino)-1-methylethyl]-3-[2-(3-fluorophenyl)ethyl]-2-thioxoimidazolidin-4-yl}propyl)guanidine]?
Answer: Total amounts of non-ambulatory or ambulatory movements versus ACSF (rats [1]; 5 nmol icv, 60 minutes): no significant differences; Detectable changes in movement (rats [1]; five or one nmol icv): did not exhibit any detectable changes in movement; also recorded: did not affect locomotion or fine movements; MCH-induced food intake at the low dose (rats [2]; 1 nmol icv with 2 nmol MCH, reversed over the next two hours): decreased MCH-induced food intake for 1 h and 2h; Suppression of cumulative MCH-induced food intake (rats [2]; 5 nmol icv with 2 nmol MCH, at 4h): 75%; Reduction of MCH-induced food intake, maximal (rats [2]; dose dependent, icv, SD rats, beginning of light phase): up to 75%; Duration of the effect on MCH-induced food intake (rats [2]; icv): over 4 h
